Structures can show the parent of a compound that is named as a salt.
Key:
intraocular pressure [1] = assay: Reduction of intraocular pressure in rabbits (pneuma-tonometer); assay type: in vivo, normal albino white New Zealand rabbits; details: rabbit
Protocol: Two groups of normal albino white New Zealand rabbits were used for this study.
Experimental group: 8 animals
At time 0, intraocular pressure of both eyes of each animal in control and experimental groups was determined.
All animals received the treatment either with saline (control group) or the tested compound (experimental group) immediately after 0 hour intraocular pressure reading. Control group received 50 μl of vehicle in both eyes. Experimental animals received 50 μl of vehicle in the left eyes and 50 μl of 1% solution of tested compound in the right eyes.
Intraocular pressure was measured at 30 minutes, 1, 2, and 4 hours.
The effects of tested drug on intraocular pressure of the rabbit was determined using a Digilab Model 30D pneuma-tonometer. Initial IOP readings were obtained in all animals after the administration of 50 μl of 0.5% Opthaine (proparacaine hydrochloride). A group of 4 rabbits served as controls and were treated with 50 μl of saline in both eyes. Eight additional rabbits received 50 μl of test drug in the right eye, and 50 μl of drug vehicle was administered in the contralateral left eye. IOP readings were made 30 minutes, 1 hours, 2 hours, and 4 hours after drug administration.
This procedure permitted the comparison of drug treated eye with the contralateral vehicle treated eye, and also with saline treated eye. For purposes of statistical analysis comparisons were made between the drug treated IOP values and vehicle treated contralateral eyes and also the saline treated IOP values.

intraocular pressure [2] = assay: Intraocular pressure in anesthetized dogs after ocular administration; assay type: in vivo, mongrel dogs; details: anesthetized dog
Protocol: (§1) In the present studies, the cardiovascular and intraocular pressure effects of Timoptic (Timolol) a Merck β-blocker marketed for treatment of glaucoma, and ±2-[(3,4-methylenedioxy)phenethyl]-5-[(3-carboxamido-4-hydroxy)-α-hydroxybenzyl]pyrrolidine were evaluated in anesthetized dogs to determine if the compounds exert systemic effects after ocular administration.
(§2) Mongrel dogs were anesthetized with sodium pentobarbital (36 mg/kg, i.v.). The trachea was intubated and the dog respired with room air if necessary (20 cc/kg, 16x/min). A femoral vein was cannulated for injection of drugs and a femoral artery for measurement of systolic blood pressure. Heart rate was recorded by a cardiotachometer triggered by the R-wave of a limb lead II ECG. Intraocular pressure measurements were made with a Digilab model 30-D Pneuma-Tonometer.
(§3) Timolol and ±2-[(3,4-methylenedioxy)phenethyl]-5-[(3-carboxamido-4-hydroxy)-α-hydroxybenzyl]pyrrolidine were dissolved in distilled water. Isoproterenol and norepinephrine were dissolved in normal saline.
(§4) Isoproterenol was administered i.v. at half-log interval doses from 0.0158 μg/kg to 0.5 μg/kg.

[3] = parameters: species or system mongrel dogs; details: dog, in vivo
Protocol: as §1, §2, §3, §4

isoproterenol responses = tested on: isoproterenol responses; parameters: species or system mongrel dogs; details: dog, in vivo
Protocol: as §1, §2, §3, §4

norepinephrine responses = tested on: norepinephrine responses; parameters: species or system mongrel dogs; details: dog, in vivo
Protocol: as §1, §2, §3, §4

eye = tested on: eye; parameters: species or system mongrel dogs; details: dog, in vivo
[4] = cited from earlier work
[5] = topical; PDR; cited from earlier work
[6] = administered to the eye at 0.5, 1 and 2%

NC(=O)c1cc(C(O)C2CCC(CCc3ccc4c(c3)OCO4)N2)ccc1O (racemic) [±2-[(3,4-methylenedioxy)phenethyl]-5-[(3-carboxamido-4-hydroxy)-α-hydroxybenzyl]pyrrolidine]
Intraocular pressure, Experimental O.D. (right, treated eye) (intraocular pressure [1]; 0 time reading before dosing of 50 μl of 1% solution (baseline), control O.D. 18.8, contralateral vehicle eye 18): 17.6 mmHg | Effect on intraocular pressure in right (treated) eyes (intraocular pressure [1]; 1% solution): decreased significantly intraocular pressure | Intraocular pressure, Experimental O.D. (right, treated eye) (intraocular pressure [1]; 50 μl of 1% solution, 30 min, control O.D. 18.3, contralateral vehicle eye 18.1): 18.9 mmHg | Intraocular pressure, Experimental O.D. (right, treated eye) (intraocular pressure [1]; 50 μl of 1% solution, 1 hour, control O.D. 19.5, contralateral vehicle eye 19.8): 17.1 mmHg | Intraocular pressure, Experimental O.D. (right, treated eye) (intraocular pressure [1]; 50 μl of 1% solution, 2 hours, control O.D. 19.8, contralateral vehicle eye 17.3): 14.4 mmHg | Intraocular pressure, Experimental O.D. (right, treated eye) (intraocular pressure [1]; 50 μl of 1% solution, 4 hours, control O.D. 19.8, contralateral vehicle eye 18.8): 15.5 mmHg | Decrease of IOP relative to Timolol (intraocular pressure [2]; [6]): to a lesser extent than Timolol | Effect on intraocular pressure (intraocular pressure [2]; [6]): decreased IOP | Effect on intraocular pressure (conclusion) (intraocular pressure [2]; at the doses tested): lowered intraocular pressure | Baseline blood pressure compared with control dogs [3]: differed little from control dogs | Baseline heart rate compared with control dogs [3]: differed little from control dogs | Systemic effect (conclusion) [3]: modest, if any systemic effect | Dose relation of inhibition of isoproterenol responses (isoproterenol responses): not dose related | Inhibition of isoproterenol responses (isoproterenol responses): some inhibition | Dose relation of inhibition of norepinephrine responses (norepinephrine responses): not dose related | Inhibition of norepinephrine responses (norepinephrine responses): some inhibition | Eye irritation (eye): no irritation to the eye

CC(C)(C)NC[C@H](O)COc1nsnc1N1CCOCC1 [Timolol]
Effect on intraocular pressure (intraocular pressure [2]; administered to the eye at 0.5%): significant decreases in intraocular pressure | Effect on baseline blood pressure [3]: marked decreases | Effect on baseline heart rate [3]: marked decreases | Time post-dose to nadir of blood pressure [3]: ≤ 90 min | Time post-dose to nadir of heart rate [3]: ≤ 90 min | Inhibition of i.v. (systemic) isoproterenol challenges (isoproterenol responses): markedly inhibited | Systemic absorption following ocular administration (indicated by inhibition of isoproterenol challenges) (isoproterenol responses): readily absorbed systemically following ocular administration | Effect on cardiac failure ([4]; congestive heart failure patients, ocular application): intensify cardiac failure in congestive heart failure patients | Systemic absorption after ocular application ([4]; human, in vivo): absorbed systemically after ocular application | Effect on bronchospasm ([4]; patients suffering from brochospastic disorders, ocular application): brochospasm in patients suffering from brochospastic disorders

CC(C)(C)NC[C@H](O)COc1nsnc1N1CCOCC1 [timolol maleate]
Systemic side effects when applied topically [5]: can cause bronchospastic disease, bradyarrhythmia, cardiogenic shock, cardiac failure, etc.

Reference: patent US4558066A, “Treatment and prevention of ocular hypertension” (priority 1984, dated 1985)
